Measurements reported in patent publication US11220482B2, “Aminopyridinemethanol compounds and their use” (UNIVERSITE AMIENS PICARDIE JULES VERNE, priority 2017, dated 2022).
Like-named read-outs stand apart in the source and are kept apart here.

Legend:
[1] = system: P. falciparum D6, W2 and 3D7 strains; details: cited from earlier work
Plasmodium falciparum W2 = test: Plasmodium falciparum susceptibility assay, first round (SYBR Green I); format: cell-based; details: W2, first round, 48-h incubation, strain resistant to CQ, sensitive to MQ, read-out: IC50 (nM) Plasmodium falciparum W2 (converted)
S. typhimurium TA98 = test: Bacterial reverse mutation assay (Ames test)
CHO-K1 cells [2] = details: Chinese hamster, 24 h
Method: All the assays were conducted in duplicate. The CHO-K1 cells, suspended in Mac Coy's 5A medium, were transferred into Labteck wells at a concentration of 100,000 cells/mL, and incubated for 24 hours at 37° C. in CO2 (5%).
The test was performed without metabolic activation: the test substances were added into cell cultures at concentrations previously defined. […] After 24 hours of incubation at 37° C. in CO2 (5%), the culture medium was removed, the cells were rinsed with phosphate buffered saline (PBS), and then returned in culture medium containing […] of cytochalasine B. After a 24-hour incubation period at 37° C., cells were rinsed with phosphate buffered saline (PBS), fixed with methanol and stained with 10% Giemsa for 20 minutes.
(§1) The analysis of results was performed under a microscope at ×1000 magnification. The antiproliferative activity of test substances was estimated by counting the number of binucleated cells relative to the number of mononucleated cells on a total of 500 cells for each dose (250 cells counted per well). The proliferation index (Cytokinesis Blocked Proliferative Index CBPI) was calculated using the following formula:
(§2) The cytostasis index (CI %), i.e. the percentage of cell replication inhibition, was calculated using the following formula: CI %−100−{100×(CBPItest material−1)/(CBPIsolvent control−1)}
(§3) The rates of micronuclei were evaluated for the presence of independent nuclear core entities in 1000 binucleated cells per well, which corresponds to 2000 cells examined by test substance dose. Micronuclei were identified as small nuclei well differentiated from cell nucleus, stained in the same manner and having a diameter less than one third of that of the cell nucleus.
(§4) Micronuclei rates obtained for different doses of test substances were compared to the negative control by a χ2 test. The assay was considered positive if: • A dose-response relationship was obtained between the rate of micronuclei and the doses tested, • At least one of these doses induced a statistically significant increase (P<0.05) in the number of micronucleated cells as compared to the negative control.

[3] = system: Plasmodium falciparum 3D7; test: Plasmodium falciparum susceptibility assay, first round (SYBR Green I); format: cell-based; details: 3D7, first round, 48-h incubation, strain susceptible to CQ, decreased susceptibility to MQ, read-out: IC50 (nM) Plasmodium falciparum 3D7 (converted)
Salmonella strains = test: Bacterial reverse mutation assay (Ames test), overall conclusion; format: cell-based, S. typhimurium; details: all tested doses, absence or presence of the metabolizing mixture
Method: Five strains of S. typhimurium were used. […] An additional strain has been chosen to detect cross-linking mutagens, hydrazines and oxidative agents: TA102, which have an AT base pair at the primary reversion site. Salmonella tester strains were gifts from Prof. B. N. Ames (Berkeley, Calif., USA). They were stored at −80° C. and regularly checked for genetic markers.
Few crystals of the frozen working strains were taken with a sterile pipette, and seeded in 10 mL of nutrient broth (NB No 2, Oxoid). Strains were grown overnight at 37° C. with shaking in Nutrient Broth No. 2, with ampicillin (25 μg/mL) for TA1535, TA97a, TA98, and TA 100, or ampicillin (25 μg/mL) plus tetracyclin (2 μg/mL) for TA 102. At the end of the incubation period, 0.1 mL of each overnight culture was mixed to 0.1 mL S9 Mix or 0.1 mL phosphate-buffered saline (PBS, pH 7.4) in 5 mL plastic tubes and various volumes of the tested samples were added to the mixtures. Each experiment included triplicate plates of four tested doses. A solvent (DMSO, 10 μL) control was added to determine the spontaneous frequency of revertants (quadruple plates). Five positive controls were also included to ensure the performance of the tester strains and the S9 Mix. […] After hardening, the plates were incubated at 37° C. for 48 hours.
At the end of the incubation period, revertants were counted with a laser colony counter equipped with a bacterial enumeration program (Spiral System Instrument Inc., Bethesda, Md., USA).
The Dunnett test was performed to determine a significant difference between the mean number of induced revertants and the mean number of spontaneous revertants.

CHO-K1 cells [4] = test: In vitro micronucleus assay, short-term exposure
Method: All the assays were conducted in duplicate. The CHO-K1 cells, suspended in McCoy's 5A medium, were transferred into Labteck wells at a concentration of 100,000 cells/mL, and incubated for 24 hours at 37° C. in CO2 (5%).
When the test was performed without metabolic activation, the test substances were added into cell cultures at concentrations previously defined.
When the assay was performed in the presence of metabolic activation, S9 mix metabolizing mixture was added to cell cultures at a concentration of 10%. Then the test substances were added to the cell cultures at concentrations previously defined.
After 3 hours of incubation at 37° C. in CO2 (5%), the culture medium was removed, the cells were rinsed with phosphate buffered saline (PBS), and then returned to culture in McCoy's 5A medium containing […] of cytochalasin B. After a 21-hour incubation period at 37° C., cells were rinsed with phosphate buffered saline (PBS), fixed with methanol and stained with 10% Giemsa for 20 minutes.
as §1, §2, §3, §4

P. falciparum W2 = test: P. falciparum growth inhibition assay, second round (SYBR Green I, ICEstimator); format: cell-based; details: Plasmodium falciparum, 48 h
P. falciparum 3D7 = test: as above; format: cell-based, Plasmodium falciparum; details: Plasmodium falciparum, 3D7, 48 h

## O[C@H](c1cc(C(F)(F)F)nc2c(C(F)(F)F)cccc12)[C@@H]1CCCCN1 [(+)-mefloquine]
[1]
  factor by which more active than the other mefloquine isomer: 1.6-1.8

## CCCCCNC[C@@H](O)c1ccc(-c2ccc(C(F)(F)F)cc2)nc1C(F)(F)F [Compound 30c, (S)-2-(Pentylamino)-1-(2-(trifluoromethyl)-6-(4-(trifluoromethyl)phenyl)pyridin-3-yl)ethanol]
S. typhimurium TA100; with S9 mix, 0.4 μg/plate
  Number of revertants by plate (Means ± SD), TA100: 202 ± 8^NS
S. typhimurium TA100; with S9 mix, 0.6 μg/plate
  Number of revertants by plate (Means ± SD), TA100: 183 ± 12^NS
S. typhimurium TA100; with S9 mix, 0.8 μg/plate
  Number of revertants by plate (Means ± SD), TA100: 178 ± 11^NS
S. typhimurium TA100; with S9 mix, 1 μg/plate
  Number of revertants by plate (Means ± SD), TA100: 168 ± 12^NS
S. typhimurium TA100; without S9 mix, 0.4 μg/plate
  Number of revertants by plate (Means ± SD), TA100: 197 ± 6^NS
S. typhimurium TA100; without S9 mix, 0.6 μg/plate
  Number of revertants by plate (Means ± SD), TA100: 201 ± 9^NS
S. typhimurium TA100; without S9 mix, 0.8 μg/plate
  Number of revertants by plate (Means ± SD), TA100: 211 ± 12^NS
S. typhimurium TA100; without S9 mix, 1 μg/plate
  Number of revertants by plate (Means ± SD), TA100: 206 ± 14^NS
Plasmodium falciparum W2
  IC50: 24.4 nM
S. typhimurium TA98; with S9 mix, 0.4 μg/plate
  Number of revertants by plate (Means ± SD), TA98: 34 ± 6^NS
S. typhimurium TA98; with S9 mix, 0.6 μg/plate
  Number of revertants by plate (Means ± SD), TA98: 38 ± 5^NS
S. typhimurium TA98; with S9 mix, 0.8 μg/plate
  Number of revertants by plate (Means ± SD), TA98: 28 ± 4^NS
S. typhimurium TA98; with S9 mix, 1 μg/plate
  Number of revertants by plate (Means ± SD), TA98: 26 ± 6^NS
S. typhimurium TA98; without S9 mix, 0.4 μg/plate
  Number of revertants by plate (Means ± SD), TA98: 35 ± 3^NS
S. typhimurium TA98; without S9 mix, 0.6 μg/plate
  Number of revertants by plate (Means ± SD), TA98: 33 ± 2^NS
S. typhimurium TA98; without S9 mix, 0.8 μg/plate
  Number of revertants by plate (Means ± SD), TA98: 34 ± 5^NS
S. typhimurium TA98; without S9 mix, 1 μg/plate
  Number of revertants by plate (Means ± SD), TA98: 32 ± 6^NS
S. typhimurium TA97a; with S9 mix, 0.4 μg/plate
  Number of revertants by plate (Means ± SD), TA97a: 128 ± 10^NS
S. typhimurium TA97a; with S9 mix, 0.6 μg/plate
  Number of revertants by plate (Means ± SD), TA97a: 134 ± 8^NS
S. typhimurium TA97a; with S9 mix, 0.8 μg/plate
  Number of revertants by plate (Means ± SD), TA97a: 137 ± 11^NS
S. typhimurium TA97a; with S9 mix, 1 μg/plate
  Number of revertants by plate (Means ± SD), TA97a: 125 ± 8^NS
S. typhimurium TA97a; without S9 mix, 0.4 μg/plate
  Number of revertants by plate (Means ± SD), TA97a: 148 ± 8^NS
S. typhimurium TA97a; without S9 mix, 0.6 μg/plate
  Number of revertants by plate (Means ± SD), TA97a: 155 ± 6^NS
S. typhimurium TA97a; without S9 mix, 0.8 μg/plate
  Number of revertants by plate (Means ± SD), TA97a: 159 ± 8^NS
S. typhimurium TA97a; without S9 mix, 1 μg/plate
  Number of revertants by plate (Means ± SD), TA97a: 138 ± 8^NS
S. typhimurium TA102; with S9 mix, 0.4 μg/plate
  Number of revertants by plate (Means ± SD), TA102: 346 ± 8^NS
S. typhimurium TA102; with S9 mix, 0.6 μg/plate
  Number of revertants by plate (Means ± SD), TA102: 349 ± 12^NS
S. typhimurium TA102; with S9 mix, 0.8 μg/plate
  Number of revertants by plate (Means ± SD), TA102: 368 ± 11^NS
S. typhimurium TA102; with S9 mix, 1 μg/plate
  Number of revertants by plate (Means ± SD), TA102: 359 ± 6^NS
S. typhimurium TA102; without S9 mix, 0.4 μg/plate
  Number of revertants by plate (Means ± SD), TA102: 298 ± 21^NS
S. typhimurium TA102; without S9 mix, 0.6 μg/plate
  Number of revertants by plate (Means ± SD), TA102: 319 ± 14^NS
S. typhimurium TA102; without S9 mix, 0.8 μg/plate
  Number of revertants by plate (Means ± SD), TA102: 331 ± 17^NS
S. typhimurium TA102; without S9 mix, 1 μg/plate
  Number of revertants by plate (Means ± SD), TA102: 339 ± 12^NS
CHO-K1 cells [2]; 5 μM
  BI (binucleated cells): 432
  CBPI (Cytokinesis-Blocked Proliferative Index): 1.86
  CI % (cytostasis index): 5%
  MNC1 (micronucleated cell rate): 8 ‰
  MNC2 (micronucleated cell rate): 12 ‰
  MNC-M (mean of micronucleated cell rates): 10 ± 2.8 ‰
  MONO (mononucleated cells): 68
CHO-K1 cells [2]; 10 μM
  BI (binucleated cells): 331
  CBPI (Cytokinesis-Blocked Proliferative Index): 1.66
  CI % (cytostasis index): 27%
  MNC1 (micronucleated cell rate): 9 ‰
  MNC2 (micronucleated cell rate): 11 ‰
  MNC-M (mean of micronucleated cell rates): 10 ± 1.4 ‰
  MONO (mononucleated cells): 169
CHO-K1 cells [2]; 50 μM
  BI (binucleated cells): 218
  CBPI (Cytokinesis-Blocked Proliferative Index): 1.42
  CI % (cytostasis index): 52%
  MNC1 (micronucleated cell rate): 10 ‰
  MNC2 (micronucleated cell rate): 12 ‰
  MNC-M (mean of micronucleated cell rates): 11 ± 1.4 ‰
  MONO (mononucleated cells): 282
[3]
  IC50: 232 ± 17 nM
S. typhimurium TA1535; with S9 mix, 0.4 μg/plate
  Number of revertants by plate (Means ± SD), TA1535: 22 ± 5^NS
S. typhimurium TA1535; with S9 mix, 0.6 μg/plate
  Number of revertants by plate (Means ± SD), TA1535: 26 ± 6^NS
S. typhimurium TA1535; with S9 mix, 0.8 μg/plate
  Number of revertants by plate (Means ± SD), TA1535: 25 ± 8^NS
S. typhimurium TA1535; with S9 mix, 1 μg/plate
  Number of revertants by plate (Means ± SD), TA1535: 26 ± 7^NS
S. typhimurium TA1535; without S9 mix, 0.4 μg/plate
  Number of revertants by plate (Means ± SD), TA1535: 26 ± 3^NS
S. typhimurium TA1535; without S9 mix, 0.6 μg/plate
  Number of revertants by plate (Means ± SD), TA1535: 25 ± 4^NS
S. typhimurium TA1535; without S9 mix, 0.8 μg/plate
  Number of revertants by plate (Means ± SD), TA1535: 28 ± 8^NS
S. typhimurium TA1535; without S9 mix, 1 μg/plate
  Number of revertants by plate (Means ± SD), TA1535: 25 ± 6^NS
Salmonella strains
  mutagenic activity in Salmonella strains (revertant rates): No significant increase in revertant rates
CHO-K1 cells [4]
  in vitro micronucleus assay result (clastogenic and/or aneugenic activities): negative results

## O[C@H](CNCCCCCCF)c1ccc(-c2ccc(C(F)(F)F)cc2)nc1C(F)(F)F [Compound 30s]
P. falciparum W2
  IC50: 97.1 nM
P. falciparum 3D7
  IC50: 421 nM

## O[C@@H](CNCCCCCCF)c1ccc(-c2ccc(C(F)(F)F)cc2)nc1C(F)(F)F [Compound 30t]
P. falciparum W2
  IC50: 181 nM
P. falciparum 3D7
  IC50: 1460 nM
